We go through 92 molecules from the Kinase Knowledgebase extract (Sharma et al. 2016).

Each structure is given as a SMILES string. pIC50: −log10 of the molar value.

The first assay addresses CDK2 (UniProt P24941). Nature of the assay: Enzyme Assay.
One may read the pIC50 as the negative decadic logarithm of the IC50, by convention in mol/L. Higher therefore signals a small IC50. Take `O=C(NCc1ccco1)c1n[nH]cc1NC(=O)c1c(F)cccc1F`: the pIC50 is greater than 4.70.
Same read-out and setting: for `CS(=O)(=O)NC[C@H]1CC[C@H](NC(=O)c2n[nH]cc2NC(=O)c2c(F)cccc2F)CC1` the value was greater than 4.70; for `CC(NC(=O)c1n[nH]cc1NC(=O)c1c(F)cccc1F)c1ccccc1` (configuration not stated), greater than 4.70; for `O=C(NC1CCN(CC2CC2)CC1)c1n[nH]cc1NC(=O)c1c(F)cccc1F`, greater than 4.70.
The molecule `O=C(Nc1c[nH]nc1C(=O)NC1CCNCC1)c1ccc(F)cc1` gave a negative logarithm of the IC50 (pIC50) greater than 3.12.
Molecule `CN1CCC(NC(=O)c2n[nH]cc2NC(=O)c2c(F)cccc2Cl)CC1` showed a negative logarithm of the IC50 (pIC50) greater than 4.70.
Still for that read-out and setting: the figure for `CN1CCC(NC(=O)c2n[nH]cc2NC(=O)c2cc(Cl)ccc2Cl)CC1` is greater than 4.70; for `CC(C)(C)CNC(=O)Nc1c[nH]nc1C(=O)N[C@H]1CC[C@H](O)CC1` it is greater than 4.70; for `O=C(NC[C@H]1CC[C@H](NC(=O)c2n[nH]cc2NC(=O)c2c(F)cccc2F)CC1)OCc1ccccc1` it is greater than 4.70.
In turn, `O=C(N[C@@H]1CCNC1)c1n[nH]cc1NC(=O)c1c(F)cccc1F` showed a pIC50 greater than 4.70.
Still for that read-out and setting: for `COc1cccc(F)c1C(=O)Nc1c[nH]nc1C(=O)NC1CCNCC1` the value was greater than 4.70.
The same measure, in the same setting: the figure for `O=C(NC1CCC(CO)CC1)c1n[nH]cc1NC(=O)c1c(F)cccc1F` (configuration not stated) is greater than 4.70; for `CC1CCC(NC(=O)c2n[nH]cc2NC(=O)c2c(F)cccc2F)CC1` (configuration not stated) it is greater than 4.70.
Still for that read-out and setting: for `O=C(Nc1c[nH]nc1C(=O)NC1CCNCC1)c1ccccc1Br` the value was greater than 4.70; for `O=C(Nc1c[nH]nc1C(=O)N[C@H]1CC[C@H](O)CC1)c1cccc2c1OCCO2`, greater than 4.70.
Regarding `O=C(NC1CCNCC1)c1n[nH]cc1NC(=O)c1c(F)cc(F)cc1F`, the pIC50 was greater than 4.70.
On the same count and under the same terms, the figure for `CN1CCC(NC(=O)c2n[nH]cc2NC(=O)c2ccccc2OC(C)(C)C)CC1` is greater than 4.70; for `COc1ccc(F)cc1C(=O)Nc1c[nH]nc1C(=O)NC1CCN(C)CC1` it is greater than 4.70.
Still for that read-out and setting: the figure for `O=C(NC1CCNCC1)c1n[nH]cc1NC(=O)c1c(F)cccc1Cl` is greater than 4.70.
The same measure, in the same setting: for `CC(C)(C)OC(=O)N1CCC(NC(=O)c2n[nH]cc2NC(=O)c2ccc(F)cc2)CC1` the value was greater than 4.70.
With `COc1ccccc1C(=O)Nc1c[nH]nc1C(=O)NC1CCNCC1`, the negative-log IC50 (pIC50) is greater than 4.70.
Take `O=C(NC1CCN(c2cccc(Cl)n2)CC1)c1n[nH]cc1NC(=O)c1c(F)cccc1F`: the negative logarithm of the IC50 (pIC50) was greater than 4.70.
Still for that read-out and setting: for `O=C(Nc1c[nH]nc1C(=O)NC1CCNCC1)c1ccc(Cl)cc1` the value was greater than 4.70; for `CC(C)(C)C1CCC(NC(=O)c2n[nH]cc2NC(=O)c2ccc(OC(F)F)cc2)CC1` (configuration not stated), greater than 3.12; for `NC[C@H]1CC[C@H](NC(=O)c2n[nH]cc2NC(=O)c2c(F)cccc2F)CC1`, greater than 4.70.
On the same count and under the same terms, the figure for `COc1cccc(F)c1C(=O)Nc1c[nH]nc1C(=O)N[C@H]1CC[C@H](O)CC1` is greater than 4.70.
On the same count and under the same terms, the figure for `O=C(NCc1ccccc1)Nc1c[nH]nc1C(=O)N[C@H]1CC[C@H](O)CC1` is greater than 3.12; for `O=C(N[C@H]1CC[C@H](O)CC1)c1n[nH]cc1NC(=O)c1c(F)cccc1Cl` it is greater than 4.70.
Molecule `CC(C)(C)C1CCC(NC(=O)c2n[nH]cc2NC(=O)c2ccc(Cl)cc2)CC1` (configuration not stated) gave a pIC50 greater than 3.12.
On the same count and under the same terms, for `Cc1onc(-c2ccccc2)c1C(=O)Nc1c[nH]nc1C(=O)NC1CCNCC1` the value was greater than 3.12.
Still for that read-out and setting: the figure for `O=C(NC1CCNCC1)c1n[nH]cc1NC(=O)c1c(Cl)cncc1Cl` is greater than 4.70; for `O=C(Nc1c[nH]nc1C(=O)NCC1CC1)c1cccc2c1OCCO2` it is greater than 4.70.
Still for that read-out and setting: for `O=C(NCc1cccnc1)c1n[nH]cc1NC(=O)c1c(F)cccc1F` the value was greater than 4.70; for `O=C(N[C@H]1CC[C@H](O)CC1)c1n[nH]cc1NC(=O)N1CCOCC1`, greater than 3.12; for `CN1CCC(N2CCC(NC(=O)c3n[nH]cc3NC(=O)c3c(F)cccc3F)CC2)CC1`, greater than 4.70.
The molecule `O=C(N[C@H]1CC[C@H](O)CC1)c1n[nH]cc1NC(=O)c1c(F)cccc1F` had a pIC50 greater than 4.70.
The same measure, in the same setting: the figure for `CO[C@H]1CC[C@H](NC(=O)c2n[nH]cc2NC(=O)c2c(F)cccc2F)CC1` is greater than 4.70; for `CN1CCC(NC(=O)c2n[nH]cc2NC(=O)c2c(Cl)cccc2Cl)CC1` it is greater than 4.70; for `O=C(N[C@H]1CC[C@H](N2CCOCC2)CC1)c1n[nH]cc1NC(=O)c1c(F)cccc1F` it is greater than 4.70.
Still for that read-out and setting: the figure for `O=C(Nc1c[nH]nc1C(=O)NC1CCNCC1)c1ccccc1N1CCOCC1` is greater than 4.70; for `CN1CCN([C@H]2CC[C@H](NC(=O)c3n[nH]cc3NC(=O)c3c(F)cccc3F)CC2)CC1` it is greater than 4.70; for `O=C(Nc1c[nH]nc1C(=O)NC1CCNCC1)c1ccccc1OCc1ccccc1` it is greater than 4.70.
The molecule `COCCN1CCC(NC(=O)c2n[nH]cc2NC(=O)c2c(Cl)cccc2Cl)CC1` gave a pIC50 greater than 4.70.
For `CC(C)(C)C1CCC(NC(=O)c2n[nH]cc2NC(=O)c2ccc(F)cc2)CC1` (configuration not stated), the pIC50 is greater than 3.12.
On the same count and under the same terms, for `O=C(N[C@H]1CCCNC1)c1n[nH]cc1NC(=O)c1c(F)cccc1F` the value was greater than 4.70; for `CC(C)(C)NC(=O)Nc1c[nH]nc1C(=O)NCC1CC1`, greater than 4.70; for `Cc1ccc(C(=O)Nc2c[nH]nc2C(=O)NC2CCN(C)CC2)cc1`, greater than 4.70.
The molecule `O=C(NC1CCN(c2ccccn2)CC1)c1n[nH]cc1NC(=O)c1c(F)cccc1F` gave a pIC50 greater than 4.70.
Still for that read-out and setting: for `O=C(Nc1c[nH]nc1C(=O)NC1CCNCC1)c1ccccc1OC(F)(F)F` the value was greater than 4.70; for `CC(C)(C)C1CCC(NC(=O)c2n[nH]cc2NC(=O)c2cc(F)cc(F)c2)CC1` (configuration not stated), greater than 3.12; for `CN(C)[C@H]1CC[C@H](NC(=O)c2n[nH]cc2NC(=O)c2c(F)cccc2F)CC1`, greater than 4.70.
On to `CC(C)(C)C1CCC(NC(=O)c2n[nH]cc2NC(=O)c2ccccc2)CC1` (configuration not stated), for which the pIC50 was greater than 3.12.
Same read-out and setting: for `CC(C)(C)OC(=O)N1CCC(NC(=O)c2n[nH]cc2NC(=O)c2ccccc2)CC1` the value was greater than 4.70; for `O=C(Nc1ccccc1)Nc1c[nH]nc1C(=O)N[C@H]1CC[C@H](O)CC1`, greater than 4.70.
The same measure, in the same setting: for `CC(C)(C)OC(=O)N1CCC(NC(=O)c2n[nH]cc2NC(=O)c2c(F)cc(F)cc2F)CC1` the value was greater than 4.70; for `CN1CCN([C@H]2CC[C@@H](NC(=O)c3n[nH]cc3NC(=O)c3c(F)cccc3F)CC2)CC1`, greater than 4.70; for `COCCN1CCC(NC(=O)c2n[nH]cc2NC(=O)c2c(F)cccc2F)CC1`, greater than 4.70.
Still for that read-out and setting: the figure for `O=C(N[C@H]1CC[C@H](NC2CCOCC2)CC1)c1n[nH]cc1NC(=O)c1c(F)cccc1F` is greater than 4.70.
The molecule `O=C1CC[C@H](NC(=O)c2n[nH]cc2NC(=O)c2c(F)cccc2F)CN1` gave a pIC50 greater than 4.70.
On the same count and under the same terms, for `O=C(Nc1c[nH]nc1C(=O)NCC1CC1)c1ccc(N2CCOCC2)cc1Cl` the value was greater than 4.70; for `N[C@H]1CC[C@H](NC(=O)c2n[nH]cc2NC(=O)c2c(F)cccc2F)CC1`, greater than 4.70; for `O=C(Nc1c[nH]nc1C(=O)N[C@H]1CC[C@H](O)CC1)Nc1c(F)cccc1F`, greater than 4.70.

A further assay deals with CDK2 (UniProt P24941). Kind of assay: Enzyme Assay. The source holds these as a separate data set.
As to `CN1CCC(NC(=O)c2n[nH]cc2NC(=O)c2c(F)cccc2F)CC1`, the negative logarithm of the IC50 (pIC50) is greater than 4.70.
Same read-out and setting: for `O=C(CCc1nnc[nH]1)Nc1c[nH]nc1C(=O)Nc1ccc(F)cc1` the value was greater than 4.70; for `Cc1ccoc1C(=O)Nc1c[nH]nc1C(=O)Nc1ccc(F)cc1`, greater than 4.70; for `O=C(Cc1c[nH]c2ccccc12)Nc1c[nH]nc1C(=O)Nc1ccc(F)cc1`, greater than 4.70.
Same read-out and setting: for `O=C(CCN1CCOCC1)Nc1c[nH]nc1C(=O)Nc1ccc(F)cc1` the value was greater than 4.70.
For the molecule `O=C(Nc1c[nH]nc1C(=O)Nc1ccc(F)cc1)c1ccsc1`, the negative-log IC50 (pIC50) was greater than 4.70.
Same read-out and setting: for `COc1cccc(C(=O)Nc2c[nH]nc2C(=O)Nc2ccc(F)cc2)c1F` the value was greater than 4.70; for `O=C(Nc1c[nH]nc1C(=O)Nc1ccc(F)cc1)c1ccccc1[N+](=O)[O-]`, greater than 4.70; for `O=C(Nc1ccc(F)cc1)c1n[nH]cc1NC1CCCCC1`, greater than 4.70.
In turn, `O=C(Nc1c[nH]nc1C(=O)Nc1ccc(F)cc1)c1ccccc1O` gave a pIC50 greater than 4.70.
On the same count and under the same terms, for `O=C(CS(=O)(=O)c1ccccc1)Nc1c[nH]nc1C(=O)Nc1ccc(F)cc1` the value was greater than 4.70.
Still for that read-out and setting: the figure for `O=C(Nc1c[nH]nc1C(=O)Nc1ccc(F)cc1)c1ccco1` is greater than 4.70; for `CN1CCN(c2ccc(CNC(=O)c3n[nH]cc3NC(=O)c3c(F)cccc3F)cc2)CC1` it is greater than 4.70; for `O=C(Nc1c[nH]nc1C(=O)Nc1ccc(F)cc1)c1cc[nH]c1` it is greater than 4.70.
Same read-out and setting: the figure for `O=C1CCC(C(=O)Nc2c[nH]nc2C(=O)Nc2ccc(F)cc2)N1` (configuration not stated) is greater than 4.70; for `O=C(NCC1CCCCC1)c1n[nH]cc1NC(=O)c1c(F)cccc1F` it is greater than 4.70.
Take `O=C(NCC1CCCNC1)c1n[nH]cc1NC(=O)c1c(F)cccc1F` (configuration not stated): the negative-log IC50 (pIC50) was greater than 4.70.
Same read-out and setting: the figure for `O=C(Cc1c[nH]cn1)Nc1c[nH]nc1C(=O)Nc1ccc(F)cc1` is greater than 4.70.
Still for that read-out and setting: for `O=C(Nc1ccc(F)cc1)c1n[nH]cc1NC(=O)C(F)(F)F` the value was greater than 4.70.
For the molecule `O=C(NCc1ccccc1F)c1n[nH]cc1NC(=O)c1c(F)cccc1F`, the pIC50 was greater than 4.70.
`Cc1[nH]nc(C(=O)Nc2ccc(F)cc2)c1NC(=O)c1c(F)cccc1F` gave a pIC50 greater than 4.70.
Still for that read-out and setting: the figure for `CC(C)(C)C(=O)Nc1c[nH]nc1C(=O)Nc1ccc(F)cc1` is greater than 4.70.
Still for that read-out and setting: for `Nc1nnnn1CC(=O)Nc1c[nH]nc1C(=O)Nc1ccc(F)cc1` the value was greater than 4.70; for `CNS(=O)(=O)Cc1ccc(CNC(=O)c2n[nH]cc2-c2ccc(Cl)cc2Cl)cc1`, greater than 4.70; for `O=C(Nc1c[nH]nc1C(=O)Nc1ccc(F)cc1)c1ccccc1OCCN1CCCC1`, greater than 4.70.
Still for that read-out and setting: the figure for `CN1CCN(CCC(=O)Nc2c[nH]nc2C(=O)Nc2ccc(F)cc2)CC1` is greater than 4.70; for `O=C(Nc1c[nH]nc1C(=O)Nc1ccc(F)cc1)c1ccc2ccccc2n1` it is greater than 4.70; for `O=C(Nc1cccc(CN2CCOCC2)c1)c1n[nH]cc1NC(=O)c1c(F)cccc1F` it is greater than 4.70.
For the molecule `COc1ccc(CNC(=O)c2n[nH]cc2NC(=O)c2c(F)cccc2F)cc1`, the pIC50 was greater than 4.70.
Same read-out and setting: the figure for `COc1ccc(F)c(C(=O)Nc2c[nH]nc2C(=O)Nc2ccc(F)cc2)c1` is greater than 4.70.
